Test results taken from patent US20160095843A1, “PYRAZOLOPYRROLIDINE DERIVATIVES AND THEIR USE IN THE TREATMENT OF DISEASE” (NOVARTIS AG, priority 2013, published 2016).

Experiments:
[1] = test system: MV-4-11 cells; assay: Cell growth inhibition assay (CellTiter-Glo), MV-4-11; type: cell-based; conditions: Homo sapiens, MV4-11
Method in brief: (§1)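 Cellular ATP (CellTiter-Glo luminescence) measured after 4 days at 37° C., 5% CO2 of compound exposure, top concentration 10 μM in 3-fold steps, 0.1% DMSO. Readings corrected for no-cell background and a day-0 plate, normalised to vehicle and medium wells; half-maximal and total growth inhibition from four-parameter curves.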

[2] = test system: K-562 cells; assay: Cell growth inhibition assay (CellTiter-Glo), K-562; type: cell-based, human; conditions: for GI50: Homo sapiens, K562
Method in brief: as §1

[3] = test system: THP-1 cells; assay: Cell growth inhibition assay (CellTiter-Glo), THP-1; type: cell-based; conditions: Homo sapiens
Method in brief: as §1

Row | SMILES | GI50 [1] | GI50 [2] | GI50 [3] | IC (TGI) [2]
1 | CCn1nc2c(c1C)C(c1ccc(Cl)cc1)N(c1cc(C)c3nnc(C)n3c1)C2=O (stereo not drawn) [Example 115, 4-(4-chlorophenyl)-5-(3,8-dimethyl-[1,2,4]triazolo[4,3-a]pyridin-6-yl)-2-ethyl-3-methyl-4,5-dihydropyrrolo-[3,4-c]pyrazol-6(2H)-one] | 22.4 nM | 142 nM | 34.8 nM | 
2 | CCn1nc(C)c2c1C(=O)N(c1cc(C)c3nnc(C)n3c1)C2c1ccc(Cl)cc1 (stereo not drawn) [Example 116, 4-(4-chlorophenyl)-5-(3,8-dimethyl-[1,2,4]triazolo[4,3-a]pyridin-6-yl)-1-ethyl-3-methyl-4,5-dihydropyrrolo-[3,4-c]pyrazol-6(1H)-one] | 12.5 nM | 81.2 nM | 18.8 nM | 
3 | Cc1cc(N2C(=O)c3c(c(C4CC4)nn3-c3ccnn3C)C2c2ccc(Cl)cc2)cn2c(C)nnc12 (stereo not drawn) [Example 117, 4-(4-chlorophenyl)-3-cyclopropyl-5-(3,8-dimethyl-[1,2,4]triazolo[4,3-a]pyridin-6-yl)-1-(1-methyl-1H-pyrazol-5-yl)-4,5-dihydropyrrolo-[3,4-c]pyrazol-6(1H)-one] | 18.6 nM | 150 nM | 31.8 nM | 
4 | Cc1nn(C2CC2)c2c1[C@@H](c1ccc(Cl)cc1)N(c1cc(C)c3nnc(C)n3c1)C2=O [Example 119, (R)-4-(4-chlorophenyl)-1-cyclopropyl-5-(3,8-dimethyl-[1,2,4]triazolo[4,3-a]pyridin-6-yl)-3-methyl-4,5-dihydropyrrolo-[3,4-c]pyrazol-6(1H)-one] | 6.15 nM | 62 nM | 9.45 nM | >10000 nM
5 | Cc1nn(-c2ccnn2C)c2c1[C@@H](c1ccc(Cl)cc1)N(c1cc(C)c(=O)n(C)c1)C2=O [Example 120, (R)-4-(4-chlorophenyl)-5-(1,5-dimethyl-6-oxo-1,6-dihydropyridin-3-yl)-3-methyl-1-(1-methyl-1H-pyrazol-5-yl)-4,5-dihydropyrrolo-[3,4-c]pyrazol-6(1H)-one] | 55.7 nM | 402 nM | 79.2 nM | >10000 nM
6 | Cc1nn(-c2ccnn2C)c2c1[C@H](c1ccc(Cl)cc1)N(c1cc(C)c(=O)n(C)c1)C2=O [Example 121, (S)-4-(4-chlorophenyl)-5-(1,5-dimethyl-6-oxo-1,6-dihydropyridin-3-yl)-3-methyl-1-(1-methyl-1H-pyrazol-5-yl)-4,5-dihydropyrrolo-[3,4-c]pyrazol-6(1H)-one] | 830 nM | 9710 nM | 2110 nM | 
7 | Cc1nn(C2CC2)c2c1[C@@H](c1ccc(Cl)cc1)N(c1cc(C)c3nnc(C)n3n1)C2=O [Example 122, (R)-4-(4-chlorophenyl)-1-cyclopropyl-5-(3,8-dimethyl-[1,2,4]triazolo[4,3-b]-pyridazin-6-yl)-3-methyl-4,5-dihydropyrrolo[3,4-c]pyrazol-6(1H)-one] | 3.41 nM | 24.1 nM | 4.32 nM | 
8 | Cc1nn(C2CC2)c2c1[C@H](c1ccc(Cl)cc1)N(c1cc(C)c3nnc(C)n3n1)C2=O [Example 123, (S)-4-(4-chlorophenyl)-1-cyclopropyl-5-(3,8-dimethyl-[1,2,4]triazolo[4,3-b]pyridazin-6-yl)-3-methyl-4,5-dihydropyrrolo-[3,4-c]pyrazol-6(1H)-one] | 2870 nM | 9400 nM | 5880 nM | 
9 | Cc1nn(-c2ccnn2C)c2c1[C@H](c1ccc(Cl)cc1)N(c1cc(C)c3nnc(C)n3c1)C2=O [Example 124, (S)-4-(4-chlorophenyl)-5-(3,8-dimethyl-[1,2,4]triazolo[4,3-a]pyridin-6-yl)-3-methyl-1-(1-methyl-1H-pyrazol-5-yl)-4,5-dihydropyrrolo[3,4-c]pyrazol-6(1H)-one] | 296 nM | 2520 nM | 695 nM | 
10 | Cc1nn(-c2ccnn2C)c2c1[C@@H](c1ccc(Cl)cc1)N(c1cc(C)c3nnc(C)n3c1)C2=O [Example 125, (R)-4-(4-chlorophenyl)-5-(3,8-dimethyl-[1,2,4]triazolo[4,3-a]pyridin-6-yl)-3-methyl-1-(1-methyl-1H-pyrazol-5-yl)-4,5-dihydropyrrolo[3,4-c]pyrazol-6(1H)-one] | 18.7 nM | 101 nM | 25.8 nM | >10000 nM
11 | CC(=O)Nc1cc(N2C(=O)c3c(c(C)nn3C3CC3)C2c2ccc(Cl)cc2)nn2c(C)nnc12 (stereo not drawn) [Example 126, N-(6-(4-(4-chlorophenyl)-1-cyclopropyl-3-methyl-6-oxopyrrolo[3,4-c]pyrazol-5-(1H,4H,6H)-yl)-3-methyl-[1,2,4]triazolo[4,3-b]pyridazin-8-yl)acetamide] | 404 nM | 4150 nM | 576 nM | 
12 | COc1ncccc1-n1nc(C)c2c1C(=O)N(c1cc(C)c(=O)n(C)c1)[C@H]2c1ccc(Cl)cc1 [Example 127, (S)-4-(4-chlorophenyl)-5-(1,5-dimethyl-6-oxo-1,6-dihydropyridin-3-yl)-1-(2-methoxypyridin-3-yl)-3-methyl-4,5-dihydropyrrolo-[3,4-c]pyrazol-6(1H)-one] | 2260 nM | > 10000 nM | 4230 nM | 
13 | COc1ncccc1-n1nc(C)c2c1C(=O)N(c1cc(C)c(=O)n(C)c1)[C@@H]2c1ccc(Cl)cc1 [Example 128, (R)-4-(4-chlorophenyl)-5-(1,5-dimethyl-6-oxo-1,6-dihydropyridin-3-yl)-1-(2-methoxypyridin-3-yl)-3-methyl-4,5-dihydropyrrolo-[3,4-c]pyrazol-6(1H)-one] | 34.5 nM | 183 nM | 64.6 nM | >10000 nM
14 | COCc1nn(C2CC2)c2c1C(c1ccc(Cl)cc1)N(c1cc(C)c3nnc(C)n3c1)C2=O (stereo not drawn) [Example 130, 4-(4-chlorophenyl)-1-cyclopropyl-5-(3,8-dimethyl-[1,2,4]triazolo[4,3-a]pyridin-6-yl)-3-(methoxymethyl)-4,5-dihydropyrrolo[3,4-c]pyrazol-6(1H)-one] | 16.1 nM | 195 nM | 35.7 nM | >10000 nM
15 | Cc1cc(N2C(=O)c3c(c(CO)nn3C3CC3)C2c2ccc(Cl)cc2)cn2c(C)nnc12 (stereo not drawn) [Example 131, 4-(4-chlorophenyl)-1-cyclopropyl-5-(3,8-dimethyl-[1,2,4]triazolo[4,3-a]pyridin-6-yl)-3-(hydroxymethyl)-4,5-dihydropyrrolo-[3,4-c]pyrazol-6(1H)-one] | 24.5 nM | 215 nM | 59.7 nM | >10000 nM

More lines, main results first:

Row | GI50 [1] | GI50 [2] | GI50 [3] | SMILES | IC (TGI) [2]
16 | 69 nM | 451 nM | 166 nM | Cc1cc(N2C(=O)c3c(c(CO)nn3C3CC3)C2c2ccc(Cl)cc2)cn(C)c1=O (stereo not drawn) [Example 133, 4-(4-chlorophenyl)-1-cyclopropyl-5-(1,5-dimethyl-6-oxo-1,6-dihydropyridin-3-yl)-3-(hydroxymethyl)-4,5-dihydropyrrolo-[3,4-c]pyrazol-6(1H)-one] | 
17 | 117 nM | 574 nM | 161 nM | Cc1cc(N2C(=O)c3nn(C4COC4)c(C)c3C2c2ccc(Cl)cc2)cn(C)c1=O (stereo not drawn) [Example 134, 4-(4-chlorophenyl)-5-(1,5-dimethyl-6-oxo-1,6-dihydropyridin-3-yl)-3-methyl-2-(oxetan-3-yl)-4,5-dihydropyrrolo[3,4-c]pyrazol-6(2H)-one] | 
18 | 79.9 nM | 616 nM | 86.1 nM | Cc1nn(C2COC2)c2c1C(c1ccc(Cl)cc1)N(c1cc(C)c(=O)n(C)c1)C2=O (stereo not drawn) [Example 135, 4-(4-chlorophenyl)-5-(1,5-dimethyl-6-oxo-1,6-dihydropyridin-3-yl)-3-methyl-1-(oxetan-3-yl)-4,5-dihydropyrrolo-[3,4-c]pyrazol-6(1H)-one] | 
19 | 28.2 nM | 335 nM | 80.2 nM | Cc1cc(N2C(=O)c3nn(C4COC4)c(C)c3C2c2ccc(Cl)cc2)cn2c(C)nnc12 (stereo not drawn) [Example 136, 4-(4-chlorophenyl)-5-(3,8-dimethyl-[1,2,4]triazolo[4,3-a]pyridin-6-yl)-3-methyl-2-(oxetan-3-yl)-4,5-dihydropyrrolo-[3,4-c]pyrazol-6(2H)-one] | 
20 | 23.1 nM | 248 nM | 64 nM | Cc1nn(C2COC2)c2c1C(c1ccc(Cl)cc1)N(c1cc(C)c3nnc(C)n3c1)C2=O (stereo not drawn) [Example 137, 4-(4-chlorophenyl)-5-(3,8-dimethyl-[1,2,4]triazolo[4,3-a]pyridin-6-yl)-3-methyl-1-(oxetan-3-yl)-4,5-dihydropyrrolo[3,4-c]pyrazol-6(1H)-one] | 
21 | 251 nM | 2060 nM | 904 nM | Cc1nn(C2CNC2)c2c1C(c1ccc(Cl)cc1)N(c1cc(C)c(=O)n(C)c1)C2=O (stereo not drawn) [Example 138, 1-(azetidin-3-yl)-4-(4-chlorophenyl)-5-(1,5-dimethyl-6-oxo-1,6-dihydropyridin-3-yl)-3-methyl-4,5-dihydropyrrolo[3,4-c]pyrazol-6(1H)-one] | 
22 | 72.9 nM | 591 nM | 190 nM | Cc1cc(N2C(=O)c3nn(C4CN(C)C4)c(C)c3C2c2ccc(Cl)cc2)cn(C)c1=O (stereo not drawn) [Example 139, 4-(4-chlorophenyl)-5-(1,5-dimethyl-6-oxo-1,6-dihydropyridin-3-yl)-3-methyl-2-(1-methylazetidin-3-yl)-4,5-dihydropyrrolo-[3,4-c]pyrazol-6(2H)-one] | 
23 | 106 nM | 1370 nM | 392 nM | Cc1nn(C2CN(C)C2)c2c1C(c1ccc(Cl)cc1)N(c1cc(C)c(=O)n(C)c1)C2=O (stereo not drawn) [Example 140, 4-(4-chlorophenyl)-5-(1,5-dimethyl-6-oxo-1,6-dihydropyridin-3-yl)-3-methyl-1-(1-methylazetidin-3-yl)-4,5-dihydropyrrolo-[3,4-c]pyrazol-6(1H)-one] | 
24 | 136 nM | 1190 nM | 281 nM | Cc1cc(N2C(=O)c3nn(C(=O)N(C)C)c(C)c3C2c2ccc(Cl)cc2)cn(C)c1=O (stereo not drawn) [Example 141] | 
25 | 79.3 nM | 712 nM | 239 nM | Cc1nn(C(=O)N(C)C)c2c1C(c1ccc(Cl)cc1)N(c1cc(C)c(=O)n(C)c1)C2=O (stereo not drawn) [Example 142] | 
